In ChEMBL document CHEMBL1146953, “Carbonic anhydrase inhibitors: cloning and sulfonamide inhibition studies of a carboxyterminal truncated alpha-carbonic anhydrase from Helicobacter pylori” (Bioorg Med Chem Lett, 2006):

Each compound was assayed against T1, Carbonic anhydrase (Helicobacter pylori (strain ATCC 700392 / 26695) (Campylobacterpylori), UniProt O24855).
T1 sequence (O24855 whole entry): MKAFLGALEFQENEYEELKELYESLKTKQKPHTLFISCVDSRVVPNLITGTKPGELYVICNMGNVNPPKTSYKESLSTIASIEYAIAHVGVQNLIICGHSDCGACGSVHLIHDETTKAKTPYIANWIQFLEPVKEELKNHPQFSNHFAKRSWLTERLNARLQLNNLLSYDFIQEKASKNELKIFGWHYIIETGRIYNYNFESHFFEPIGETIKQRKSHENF
Description: (§1) Inhibition of Helicobacter pylori recombinant CA

Q: Which Ki does the source give for CC1(C)O[C@@H]2[C@@H](CO[C@@]3(COS(N)(=O)=O)OC(C)(C)O[C@@H]23)O1 [TOPIRAMATE] here?
A: 0.205 µM

What follows are compounds tested against carbonic anhydrase (Helicobacter pylori, UniProt O25798).
Chain of carbonic anhydrase (O25798 1-202): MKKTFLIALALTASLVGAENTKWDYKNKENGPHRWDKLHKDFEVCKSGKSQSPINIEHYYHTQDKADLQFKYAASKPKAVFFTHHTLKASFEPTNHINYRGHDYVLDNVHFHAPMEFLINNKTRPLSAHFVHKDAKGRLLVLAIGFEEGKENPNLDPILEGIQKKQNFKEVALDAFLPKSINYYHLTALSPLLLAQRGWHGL
Description: as §1

Q: Which Ki does the source give for NNc1ccccc1S(N)(=O)=O here?
A: 0.562 µM

Q: Nc1ccc(S(=O)(=O)NCc2ccc(S(N)(=O)=O)cc2)cc1 was tested. Which Ki did it give?
A: 0.124 µM

Q: With Nc1cc(Cl)c(S(N)(=O)=O)cc1S(N)(=O)=O as the compound, how does the Ki read?
A: 0.041 µM

Q: How did the Ki turn out when Nc1ccc(S(N)(=O)=O)cc1I was run?
A: 0.504 µM

Q: With Nc1ccc(S(=O)(=O)Nc2nnc(S(N)(=O)=O)s2)cc1 as the compound, how does the Ki read?
A: 0.213 µM

Q: With NS(=O)(=O)c1nnc(-c2ccccc2Cl)s1 as the compound, how does the Ki read?
A: 0.084 µM

Q: With Nc1nccc(Nc2ccc(S(N)(=O)=O)cc2)n1 as the compound, how does the Ki read?
A: 0.072 µM

Q: How did the Ki turn out when NS(=O)(=O)c1nc2ccc(O)cc2s1 was run?
A: 0.174 µM

Q: Nc1ccc(S(N)(=O)=O)cc1Br was tested. Which Ki did it give?
A: 0.463 µM

Q: Which Ki does the source give for Cn1nc(S(N)(=O)=O)sc1=N here?
A: 0.494 µM

Q: Which Ki does the source give for NS(=O)(=O)c1ccc(CCO)cc1 here?
A: 1.16 µM

Q: How did the Ki turn out when Nc1ccc(S(N)(=O)=O)cc1F was run?
A: 1.31 µM

Q: Which Ki does the source give for NS(=O)(=O)c1ccc(CO)cc1 here?
A: 0.87 µM

Q: Which Ki does the source give for NCCc1ccc(S(N)(=O)=O)cc1 here?
A: 1.03 µM

Q: With Nc1ccc(S(N)(=O)=O)cc1Cl as the compound, how does the Ki read?
A: 0.395 µM

Q: With Nc1ccc(S(=O)(=O)NCCc2ccc(S(N)(=O)=O)cc2)cc1 as the compound, how does the Ki read?
A: 0.096 µM

Q: With NS(=O)(=O)c1ccc(S(=O)(=O)Nc2cccc3c(Cl)c[nH]c23)cc1 as the compound, how does the Ki read?
A: 0.434 µM

Q: Which Ki does the source give for Nc1cc(C(F)(F)F)c(S(N)(=O)=O)cc1S(N)(=O)=O [2,4-DISULFAMYLTRIFLUOROMETHYLANILINE] here?
A: 0.402 µM

Q: How did the Ki turn out when NS(=O)(=O)c1nnc(NS(=O)(=O)c2ccccc2)s1 [BENZOLAMIDE] was run?
A: 0.287 µM

Q: CCN[C@H]1CN(CCCOC)S(=O)(=O)c2sc(S(N)(=O)=O)cc21 [BRINZOLAMIDE] was tested. Which Ki did it give?
A: 0.246 µM

Q: For NS(=O)(=O)c1ccc(C(=O)O)cc1 [CARZENIDE], which Ki is on record?
A: 1.08 µM

Q: Which Ki does the source give for CCOc1ccc2nc(S(N)(=O)=O)sc2c1 [ETHOXZOLAMIDE] here?
A: 0.155 µM

Q: With NCc1ccc(S(N)(=O)=O)cc1 [MAFENIDE] as the compound, how does the Ki read?
A: 0.83 µM

Q: For Cc1ccc(S(N)(=O)=O)cc1 [P-TOLUENESULFONAMIDE], which Ki is on record?
A: 0.473 µM

Q: Which Ki does the source give for Nc1ccc(S(N)(=O)=O)cc1 [SULFANILAMIDE] here?
A: 0.431 µM
